From ChEMBL document CHEMBL5032491, “New Dibenzoquinoxalines Inhibit Triple-Negative Breast Cancer Growth by Dual Targeting of Topoisomerase 1 and the c-MYC G-Quadruplex” (J Med Chem, 2021)
Active and inactive are the calls of the source. The rule behind the calls is not given here.

Columns and labels:
MDA-MB-231 [1] = assay: Antiproliferative activity against human MDA-MB-231 cells assessed as inhibition of cell growth incubated for 24 hrs by CCK8 assay; type: functional, cell-based; settings: MDA-MB-231, 24 h
MDA-MB-231 [2] = assay: Antiproliferative activity against human MDA-MB-231 cells assessed as inhibition in cell growth at 20 uM incubated for 24 hrs by CCK8 assay; type: functional, cell-based
MDA-MB-231 [3] = assay: Antitumor activity against human MDA-MB-231 cells xenografted in BALB/c mouse assessed as tumor growth inhibition measured at 2.5 mg/kg, ip administered every other day for 20 days; type: functional; settings: time 20.0 day
[4] = Toxicity in human MDA-MB-231 cells xenografted BALB/c mouse assessed as body weight loss at 2.5 mg/kg, ip administered every other day for 20 days; type: organism-based; settings: in vivo, 480 h, time 20 day
Quadruplex DNA = assay: Inhibition of c-myc G4-quadruplex DNA transcriptional activity in human MDA-MB-231 cells incubated for 24 hrs by RT-PCR analysis; type: cell-based
[5] = molecular target: T1, DNA topoisomerase 1 (Homo sapiens) (UniProt P11387); assay: Inhibition of human topoisomerase 1 mediated relaxation of supercoiled pHOT1 DNA at 5 to 20 uM incubated for 30 mins by agarose gel electrophoresis; settings: dose 5-20 µM
T1 sequence (whole entry): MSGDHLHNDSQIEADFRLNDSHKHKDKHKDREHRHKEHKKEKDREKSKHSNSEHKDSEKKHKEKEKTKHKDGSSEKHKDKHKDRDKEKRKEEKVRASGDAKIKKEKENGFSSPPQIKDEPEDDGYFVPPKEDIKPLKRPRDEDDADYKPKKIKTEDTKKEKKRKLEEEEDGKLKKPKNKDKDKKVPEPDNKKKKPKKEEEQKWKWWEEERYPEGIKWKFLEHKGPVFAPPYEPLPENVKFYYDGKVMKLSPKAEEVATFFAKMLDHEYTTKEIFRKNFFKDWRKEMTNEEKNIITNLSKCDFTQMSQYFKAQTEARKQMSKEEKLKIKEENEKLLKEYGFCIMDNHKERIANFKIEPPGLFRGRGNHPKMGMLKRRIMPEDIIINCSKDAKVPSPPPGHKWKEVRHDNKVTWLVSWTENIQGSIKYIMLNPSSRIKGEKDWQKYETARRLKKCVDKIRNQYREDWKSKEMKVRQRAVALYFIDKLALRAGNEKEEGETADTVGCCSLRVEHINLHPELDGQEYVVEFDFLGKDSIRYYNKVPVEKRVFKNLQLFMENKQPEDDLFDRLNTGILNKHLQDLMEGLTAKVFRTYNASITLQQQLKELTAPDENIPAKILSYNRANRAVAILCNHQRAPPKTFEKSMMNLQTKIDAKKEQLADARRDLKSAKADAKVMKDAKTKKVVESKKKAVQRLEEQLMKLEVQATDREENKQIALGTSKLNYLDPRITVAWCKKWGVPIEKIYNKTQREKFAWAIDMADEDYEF

SMILES	IC50 (MDA-MB-231 [1]) [µM]	Activity (MDA-MB-231 [2])	Activity (MDA-MB-231 [3])	Activity [4]	inhibition (Quadruplex DNA)	inhibition [5]
CN1CCN(c2ccc3c(c2)c2cc(N4CCN(C)CC4)ccc2c2nc4cc5ccccc5cc4nc32)CC1	5.4	–	–	–	–	–
COc1cccc2c1C(=O)c1c(O)c3c(c(O)c1C2=O)C[C@@](O)(C(=O)CO)C[C@@H]3O[C@H]1C[C@H](N)[C@H](O)[C@H](C)O1 [DOXORUBICIN]	–	Active	Dose-Dependent Effect	Toxic	–	–
CN1CCN(c2ccc3c(c2)c2cc(N4CCN(C)CC4)ccc2c2nc4cc5c(cc4nc32)N(C)CCN5C)CC1	3.1	–	–	–	inactive	–
CN1CCN(c2ccc3c(c2)c2cc(N4CCN(C)CC4)ccc2c2nc4cc(F)c(F)cc4nc32)CC1	2.1	–	–	–	–	Active
CN1CCN(c2ccc3c(c2)c2cc(N4CCN(C)CC4)ccc2c2nc4cnccc4nc32)CC1	17.5	–	–	–	inactive	Active
CN1CCN(c2ccc3c(c2)c2cc(N4CCN(C)CC4)ccc2c2nc4cc(Oc5ccccc5)ccc4nc32)CC1	2.2	–	–	–	inactive	inactive
CN1CCN(c2ccc3c(c2)c2cc(N4CCN(C)CC4)ccc2c2nc4cc(C(F)(F)F)ccc4nc32)CC1	5.6	–	–	–	inactive	inactive
